Experimental data from patent US20070043115A1, “Use of choline to prevent thrombosis associated with total parenteral nutrition” (priority 2005, published 2007).
Where two headings read alike, the source gives them in different places.

Legend:
[1] = Experimental: Prior to use, the appropriate amount of choline solution is transferred from the sterile vial and is added to the nutrient solution which typically is contained in a TPN bag.
[2] = tested on: plasma levels of homocysteine
Experimental: Two female normal volunteers were infused with C-13-labeled choline and plasma levels of homocysteine were determined before and after infusion.

| Compound | effects on the TPN solution turbidity, pH, or amino acid concentrations ([1]; choline chloride added to TPN nutrient solutions) | stable in various TPN nutrient solutions ([1]; various TPN nutrient solutions) | Plasma concentration of homocysteine after infusion ([2]; first normal volunteer, 6.62 umol/L before infusion) [µmol/L] | Plasma concentration of homocysteine after infusion ([2]; second normal volunteer, 7.47 umol/L before infusion) [µmol/L] |
| --- | --- | --- | --- | --- |
| C[N+](C)(C)CCO.[Cl-] [Choline chloride, choline chloride] | no adverse affects | at least 30 days | – | – |
| C-13-labeled choline | – | – | 5.14 | 6.64 |
